“Also recorded” adds a separate entry of the source.
Columns and labels:
MARCH5 [1] = molecular target: T1, MARCH5 (Homo sapiens, UniProt Q9NX47); experiment: MARCH5 / γc-luciferase reporter system in co-transfected HEK293 cells (screen of FDA-approved drugs); type: cell-based; conditions: HEK293 cells co-transfected with MARCH5 and γc-luciferase fusion protein; increase = MARCH5 inhibition
T1 construct: expressed in transfected cells; host or cells: HEK293
T1 sequence (Q9NX47 1-278): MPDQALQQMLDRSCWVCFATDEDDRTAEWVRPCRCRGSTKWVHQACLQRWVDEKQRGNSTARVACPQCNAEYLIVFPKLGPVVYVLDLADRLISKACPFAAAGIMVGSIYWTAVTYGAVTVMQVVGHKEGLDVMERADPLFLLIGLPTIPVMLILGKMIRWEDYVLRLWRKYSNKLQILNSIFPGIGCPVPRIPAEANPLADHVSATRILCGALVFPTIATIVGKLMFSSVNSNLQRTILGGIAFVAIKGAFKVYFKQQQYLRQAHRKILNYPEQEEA
From the text: Unfortunately, no pharmacological inhibitors of MARCH5 have been reported. We designed a reporter system in which HEK293 cells are co-transfected with two plasmids encoding MARCH5 and γc-luciferase fusion protein respectively. In this system, inhibition of MARCH5 by an inhibitor would result in increased luciferase activity in reporter assays.
Using this system, we screened a collection of Food and Drug Administration-approved drugs and identified 10 compounds that increased luciferase activity to more than 1.5-folds (Table 1). […] Pitavastatin is a unique lipophilic statin and potent inhibitor of HMG-CoA reductase with a strong effect on lowering plasma total cholesterol and triacylglycerol. Pitavastatin has also been reported to have pleiotropic beneficial effects such as suppression of inflammation, regulation of angiogenesis and osteogenesis, improvement of endothelial function and arterial stiffness.

γc [2] = experiment: γc degradation in Jurkat cells with degradation-route inhibitors (CHX chase or PD-L1 stimulation); type: cell-based, human
Protocol: PD-1-expressing Jurkat cells were pre-stimulated with PHA (50 ng/ml) for 36 h and then treated with CHX (0.1 mM) for the indicated times before immunoblotting analysis with the indicated antibodies. […] PD-1-expressing Jurkat cells were stimulated with PHA (50 ng/ml) in the presence of 2 μg/ml human PD-L1-Fc fusion protein or control (human IgG1) for 36 h, and then treated with MG132 ([…]), NH4Cl (25 mM) or 3-MA (500 ng/ml) for 12 h before immunoblotting analysis with the indicated antibodies. • (D) PD-1 ligation induces polyubiquitination of γc. PD-1-expressing Jurkat cells were stimulated with PHA (50 ng/ml) for the indicated times before co-immunoprecipitation and immunoblotting analysis with the indicated antibodies. • (E) MARCH5 promotes degradation of γc in a dose-dependent manner. HEK293 cells were transfected with the indicated plasmids for 24 h before immunoblot analysis with the indicated antibodies. • (F) Association of γc with MARCH5. […]
Cells were lysed in 1 ml of NP-40 lysis buffer (20 mM Tris-HCl, 150 mM NaCl, 1 mM EDTA, 10% Nonidet P-40, […] Triton X-100, […] aprotinin, 10 μg/ml leupeptin, and 1 mM phenylmethylsulfonyl fluoride, PMSF). […] The immunoprecipitants were analyzed by immunoblotting with the ubiquitin antibody.

MARCH5 [3] = molecular target: T1, MARCH5; experiment: MARCH5-mediated degradation of γc in HEK293 cells; type: cell-based
Protocol: HEK293 cells were transfected by standard calcium phosphate precipitation. The empty control plasmid was added to ensure that each transfection receives the same amount of total DNA.
Cells were lysed in 1 ml of NP-40 lysis buffer (20 mM Tris-HCl, 150 mM NaCl, 1 mM EDTA, 10% Nonidet P-40, […] Triton X-100, […] aprotinin, 10 μg/ml leupeptin, and 1 mM phenylmethylsulfonyl fluoride, PMSF). For each immunoprecipitation reaction, a 0.4 ml aliquot of lysate was incubated with 0.5-2 μg of the indicated antibody or control IgG and 35 μL of a 1:1 slurry of Protein-G Sepharose (GE Healthcare) at 4° C. for 3 h. The Sepharose beads were washed three times with 1 ml of lysis buffer containing 500 mM NaCl. The precipitates were fractionated by SDS-PAGE, and immunoblotting analysis was performed with the indicated antibodies. For ubiquitination assays, the immunoprecipitants were re-extracted in NP-40 lysis buffer containing 1% SDS and denatured by heating for 10 min. The supernatants were diluted with regular lysis buffer until the concentration of SDS was decreased to 0.1%, following by re-immunoprecipitation with the indicated antibodies. The immunoprecipitants were analyzed by immunoblotting with the ubiquitin antibody.

γc [4] = experiment: Effects of other statin drugs on the γc level; type: cell-based; conditions: other HMG-CoA reductase inhibitor statins
From the text: Statin drugs, such as lovastatin, simvastatin, fluvastatin sodium and rosuvastatin calcium, are thought to target HMG-CoA reductase. Therefore, we examined the effects of these statin drugs on the γc level.

tumor = experiment: PC or rosuvastatin calcium alone or with IL-2 on tumor growth in mice; type: in vivo, mouse
From the text: We further tested the anti-tumor effects of PC in mouse MC38 colorectal carcinoma and B16F10 melanoma models.

Molecule | Rel. Luc. Act (MARCH5 [1]) | further results
O=C(/C=C/c1cccc(S(=O)(=O)Nc2ccccc2)c1)NO [Belinostat] | 1.85 | –
Nc1ccccc1NC(=O)c1ccc(CNC(=O)OCc2cccnc2)cc1 [Entinostat] | 1.60 | –
NC(=O)N1CCC(CC(=O)N2CCC([C@H]3c4ncc(Br)cc4CCc4cc(Cl)cc(Br)c43)CC2)CC1 [Lonafarnib] | 2.88 | –
Nc1ccccc1NC(=O)c1ccc(CNc2nccc(-c3cccnc3)n2)cc1 [Mocetinostat] | 1.83 | –
Cl.N [NH4Cl, ammonium chloride] | – | γc degradation after termination of protein synthesis by CHX (γc [2]; Jurkat cells, MG132 100 μM, NH4Cl 25 mM or 3-MA 500 ng/ml 4 h, then CHX 0.1 mM 2 h): markedly inhibited; also recorded: inhibits γc degradation; PD-L1-induced degradation of γc (γc [2]; PD-1-expressing Jurkat cells, PHA + PD-L1-Fc 36 h, then inhibitor 12 h): also inhibited; also recorded: inhibits PD-1 ligation-induced degradation of γc; MARCH5-mediated degradation of γc (MARCH5 [3]): inhibited MARCH5-mediated degradation of γc
CCCCc1nc2cc(/C=C/C(=O)NO)ccc2n1CCN(CC)CC [Pracinostat] | 1.75 | –
O=P(O)(O)C(O)(Cc1cccnc1)P(=O)(O)O [Risedronate Sodium] | 1.60 | –
Nc1cc(F)ccc1NC(=O)c1ccc(CNC(=O)/C=C/c2cccnc2)cc1 [Tucidinostat] | 1.86 | –
O=C(CCCCCCC(=O)Nc1ccccc1)NO [Vorinostat] | 1.58 | –
CC[C@H](C)C(=O)O[C@H]1C[C@@H](C)C=C2C=C[C@H](C)[C@H](CC[C@@H]3C[C@@H](O)CC(=O)O3)[C@H]21 [lovastatin] | – | γc level (γc [4]): up-regulated the level of γc
CC(C)c1nc(N(C)S(C)(=O)=O)nc(-c2ccc(F)cc2)c1/C=C/[C@@H](O)C[C@@H](O)CC(=O)[O-].CC(C)c1nc(N(C)S(C)(=O)=O)nc(-c2ccc(F)cc2)c1/C=C/[C@@H](O)C[C@@H](O)CC(=O)[O-].[Ca+2] [rosuvastatin calcium] | – | synergistic effect with IL-2 on tumor suppression (tumor; combined with IL-2, mice): no such synergism was observed; tumor growth (tumor; statin administered alone, mice): suppressed tumor growth; γc level (γc [4]): up-regulated the level of γc
Chidamide | 1.59 | –

Reference: patent US20260216168A1, “MODULATION OF PD-1 SIGNALING FOR TREATMENT OF DISEASES” (Wuhan University, priority 2023, published 2026)
